# In patent US11760744B2, “Fused ring compounds” (Genentech, Inc., priority 2018, dated 2023):
# How the values were obtained:
# K-Ras G12C [1] = molecular target: T1, K-Ras G12C (Homo sapiens, UniProt P01116, G12C); experiment: Western blot assay for in cell alkylation of K-Ras G12C (HCC1171 cells); type: cell-based; set-up: endogenous in cells; host or cells: HCC1171; conditions: 18 hours at 37° C., 7 point dose response
# Procedure: Western Blot Assay for in Cell Alkylation of K-Ras G12C
# HCC1171 cells were maintained in RPMI1640 supplemented with 10% FBS. Cells were plated in a 96-well plate at 20,000 cells/well and the following day compounds were added to the cells. After 18 hours at 37° C., cells were lysed in RIPA buffer (Sigma R0278) with 0.5% SDS and protease/phosphatase inhibitor cocktail. After through mixing to enable complete lysis, the lysates were cleared by centrifugation before 20 μl was transferred from each well and combined with loading buffer and reducing agent. After heating for 10 minutes at 95° C., 15 μl of each sample was loaded onto a 4-20% Tris-Glycine gel and electrophoresed at 110V for 165 minutes in SDS-PAGE running buffer. Gels were transferred to a nitrocellulose membrane, blocked for 1 hour and stained overnight at 4° C. with primary antibody against K-Ras (polyclonal Proteintech 12063-1-AP). The membrane was then washed thoroughly and counterstained with anti-rabbit IRDye 800CW (LI-COR 926-32211) for one hour at room temperature. After final washes, the membrane was imaged on a LI-COR Odyssey CLx at medium resolution. Alkylated K-Ras was visible by an electrophoretic shift from unmodified K-Ras. To quantify this affect, the LICOR software was used to draw a rectangle over alkylated and unalkylated bands for each well and measured the total fluorescent intensity (FI) in each of these bands. The following formula was then used to calculate % alkylation: FI(alkylated)/(FI(alkylated)+FI(unalkylated))*100 for each well.
# A 7 point dose response curve was used to determine the IC50 for each compound. Cell alkylation data are presented below in Table 2.
# Target sequence in this assay (P01116 1-188 isoform P01116-2 G12C): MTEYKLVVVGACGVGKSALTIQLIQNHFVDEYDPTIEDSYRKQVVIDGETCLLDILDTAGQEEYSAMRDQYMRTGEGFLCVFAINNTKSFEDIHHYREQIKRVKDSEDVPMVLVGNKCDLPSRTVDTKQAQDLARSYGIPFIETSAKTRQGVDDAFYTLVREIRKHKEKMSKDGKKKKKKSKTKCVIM
# K-Ras G12C [2] = molecular target: T1, K-Ras G12C; experiment: K-Ras G12C, SOS1, Raf RBD HTRF assay for inhibition of GTP exchange; type: biochemical; set-up: K-Ras G12C (residues 2-188) and SOS1 (residues 564-1049) had N-terminal 6-His; made in house; host or cells: E. coli; conditions: 18 hours preincubation with K-Ras G12C at room temperature; SOS1-mediated GTP exchange
# Procedure: K-Ras G12C, SOS1, Raf RBD Homogeneous Time Resolved Fluorescence (HTRF) Assay for Inhibition of GTP Exchange
# After 18 hours at room temperature, the SOS1 GTP exchange factor (1.67 nM during exchange, 1.25 nM final) was added to initiate nucleotide exchange to GTP (200 μM during exchange, 150 μM final). The level of GTP exchange was assessed by addition of a Ras binding domain derived from C-Raf and the HTRF detection antibodies Tb-anti-FLAG and D2-anti-his (Cis-Bio) at 50 nM, 1 nM and 12.5 nM, respectively. After 2 hours, the ratio of 665 nm to 615 nm emission with 320 nm excitation was measured on an Envision plate reader (Perkin Elmer).
# The final reaction volume was 20 μl in a ProxiPlate-384F Plus (Perkin Elmer), in buffer containing 20 mM HEPES, 150 mM NaCl, 1 mM MgCl2, 0.1% BSA, 0.03% Tween-20 and 1 mM DTT. […] HTRF data are presented below in Table 2.
# Target sequence in this assay (P01116 2-188 isoform P01116-2 G12C): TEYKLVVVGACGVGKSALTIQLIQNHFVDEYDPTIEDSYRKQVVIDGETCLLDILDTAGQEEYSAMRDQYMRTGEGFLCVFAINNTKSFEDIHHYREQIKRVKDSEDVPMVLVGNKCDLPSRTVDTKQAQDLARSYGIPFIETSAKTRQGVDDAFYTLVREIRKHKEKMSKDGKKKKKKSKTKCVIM
SMILES,EC50 (K-Ras G12C [1]),IC50 (K-Ras G12C [2])
"C=CC(=O)N1CCN(c2ncnc3c2CC[C@H](c2cncc4ccccc24)C3)CC1 (single isomer, unassigned) [Example 44b]",1000 nM,8700 nM
"CN1CCC[C@H]1COc1nc2c(c(N3CCN(C(=O)/C=C/CF)[C@H](CC#N)C3)n1)CC[C@H](c1cc(O)cc3ccccc13)C2 (single isomer, unassigned) [Example 62b]",2900 nM,180 nM
"C=C(F)C(=O)N1CCN(c2nc(OC[C@@H]3C[C@@H](F)CN3C)nc3c2C[C@H](C)[C@@H](c2c(F)c(N)cc(C)c2C(F)(F)F)C3)C[C@H]1CC#N (single isomer, unassigned) [Example 38a]",1000 nM,3600 nM
"C#CC[C@@H]1CN(c2nc(OC[C@@H]3CCCN3C)nc3c2C[C@@H](C)[C@H](c2cccc4c2CCC4)C3)CCN1C(=O)C=C (single isomer, unassigned) [Example 40d]",1000 nM,29 nM
"C=CC(=O)N1CCN(c2ncnc3c2CC[C@H](c2nc(N)ccc2C(F)(F)F)C3)CC1 (single isomer, unassigned) [Example 46b]",970 nM,230 nM
"CNC/C=C/C(=O)N1CCN(c2ncnc3c2C[C@@H](C)[C@H](c2c(C)ccc4[nH]ncc24)C3)CC1 (single isomer, unassigned) [Example 19a]",12000 nM,930 nM
"C=C(F)C(=O)N1CCN(c2nc(OC[C@@H]3CCCN3C)nc3c2CC[C@@H](c2cc(O)cc4ccccc24)C3)C[C@@H]1CC#N (single isomer, unassigned) [Example 61e]",1500 nM,90 nM
"C=CC(=O)Oc1cc(C2CCc3c(nc(OC[C@@H]4CCCN4C)nc3N3CCN(C(=O)C=C)C(CC#N)C3)C2)c2ccccc2c1 (stereo partly drawn) [Example 59a, 4-(4-(4-acryloyl-3-(cyanomethyl)piperazin-1-yl)-2-(((S)-1-methylpyrrolidin-2-yl)methoxy)-5,6,7,8-tetrahydroquinazolin-7-yl)naphthalen-2-yl acrylate]",29 nM,250 nM
"C=CC(=O)N1CCN(c2ncnc3c2CC[C@H](c2c(F)c(N)cc(C)c2C(F)(F)F)C3)CC1 (single isomer, unassigned) [Example 27a]",340 nM,89 nM
"CN1CCC[C@H]1COc1nc2c(c(N3CCN(C(=O)/C=C/CF)C(CC#N)C3)n1)CCC(c1cc(O)cc3ccccc13)C2 (mixture of isomers) [Example 62a, 2-(1-((E)-4-fluorobut-2-enoyl)-4-(7-(3-hydroxynaphthalen-1-yl)-2-(((S)-1-methylpyrrolidin-2-yl)methoxy)-5,6,7,8-tetrahydroquinazolin-4-yl)piperazin-2-yl)acetonitrile]",14 nM,18 nM
"C=CC(=O)N1CCN(c2nc(OC[C@@H]3CCCN3C)nc3c2CCC(c2cc(O)cc4ccccc24)C3)[C@@H](CO)C1 (single isomer, unassigned) [Example 29b]",330 nM,< 10 nM
"C=CC(=O)N1CCN(c2ncnc3c2CC[C@H](c2c(F)c(N)cc(F)c2C(F)(F)F)C3)CC1 (single isomer, unassigned) [Example 13b]",690 nM,84 nM
"C=CC(=O)N1C[C@H](C)N(c2nc(OC[C@@H]3CCCN3C)nc3c2C[C@@H](C)[C@H](c2cc(O)cc4ccccc24)C3)[C@@H](C)C1 (single isomer, unassigned) [Example 32a]",120 nM,< 10 nM
"C=CC(=O)N1CCN(c2nc(OC[C@@H]3CCCN3C)nc3c2C[C@H](C)[C@@H](c2cccc4c2CCC4)C3)C[C@H]1CC#N (single isomer, unassigned) [Example 35a]",550 nM,190 nM
"C=CC(=O)N1CCN(c2nc(OC[C@@H]3C[C@@H](F)CN3C)nc3c2C[C@@H](C)[C@H](c2nc(N)cc(C)c2C2CC2)C3)[C@@H](C)C1 (single isomer, unassigned) [Example 24b]",490 nM,21 nM
"C=CC(=O)N1CCN(c2ncnc3c2C[C@@H](C)[C@H](c2c(C)ccc4[nH]ncc24)C3)CC1 (single isomer, unassigned) [Example 15a]",430 nM,68 nM
"C=C(F)C(=O)N1CCN(c2nc(OC[C@@H]3CCCN3C)nc3c2CC[C@H](c2cc(O)cc4ccccc24)C3)C[C@H]1CC#N (single isomer, unassigned) [Example 61b]",2800 nM,640 nM
"C=CC(=O)N1CCN(c2nc(OCC[C@@H]3CCCN3C)nc3c2CCC(c2cc(O)cc4ccccc24)C3)CC1 (stereo partly drawn) [Example 52a, 1-(4-(7-(3-hydroxynaphthalen-1-yl)-2-(2-((S)-1-methylpyrrolidin-2-yl)ethoxy)-5,6,7,8-tetrahydroquinazolin-4-yl)piperazin-1-yl)prop-2-en-1-one]",990 nM,51 nM
"C=CC(=O)N1CCN(c2ncnc3c2C[C@@H](C)[C@H](c2nc(N)ccc2C(F)(F)F)C3)CC1 (single isomer, unassigned) [Example 42b]",360 nM,67 nM
"C=C(F)C(=O)N1CCN(c2nc(OC[C@@H]3CCCN3C)nc3c2CC[C@H](c2cc(O)cc4ccccc24)C3)C[C@@H]1CC#N (single isomer, unassigned) [Example 61c]",1800 nM,83 nM
"CN1CCC[C@H]1COc1nc2c(c(N3CCN(C(=O)/C=C/CNC45CC(C4)C5)[C@@H](CC#N)C3)n1)CCC(c1cccc3ccccc13)C2 (stereo partly drawn) [Example 48a, 2-((2S)-1-((E)-4-(bicyclo[1.1.1]pentan-1-ylamino)but-2-enoyl)-4-(2-(((S)-1-methylpyrrolidin-2-yl)methoxy)-7-(naphthalen-1-yl)-5,6,7,8-tetrahydroquinazolin-4-yl)piperazin-2-yl)acetonitrile]",150 nM,11 nM
"C#CC[C@H]1CN(c2nc(OC[C@@H]3CCCN3C)nc3c2C[C@@H](C)[C@H](c2cccc4c2CCC4)C3)CCN1C(=O)C=C (single isomer, unassigned) [Example 40a]",100 nM,< 10 nM
"C=CC(=O)N1CCN(c2nc(OC[C@@H]3CCCN3C)nc3c2C[C@H](C)[C@@H](c2nc(N)cc(C)c2C(F)(F)F)C3)CC1 (single isomer, unassigned) [Example 20b]",2100 nM,1400 nM
"C=C(F)C(=O)N1CCN(c2nc(OC[C@@H]3C[C@@H](F)CN3C)nc3c2C[C@H](C)[C@@H](c2c(F)c(N)cc(C)c2C(F)(F)F)C3)C[C@@H]1CC#N (single isomer, unassigned) [Example 38d]",1000 nM,1700 nM
"C#CC[C@@H]1CN(c2nc(OC[C@@H]3CCCN3C)nc3c2C[C@H](C)[C@@H](c2cccc4c2CCC4)C3)CCN1C(=O)C=C (single isomer, unassigned) [Example 40c]",1000 nM,1200 nM
"C=CC(=O)N1CCN(c2ncnc3c2CC[C@H](c2nc(N)cc4ccccc24)C3)CC1 (single isomer, unassigned) [Example 3b]",5500 nM,710 nM
"C=CC(=O)N1CCN(c2ncnc3c2C[C@@H](C)[C@H](c2cc(CO)ccc2C)C3)CC1 (single isomer, unassigned) [Example 4b]",1300 nM,390 nM
"C=CC(=O)N1CCN(c2nc(OC[C@@H]3CCCN3C)nc3c2C[C@H](C)[C@@H](c2cccc4c2CCC4)C3)C[C@@H]1CC#N (single isomer, unassigned) [Example 35c]",46 nM,22 nM
